Where two headings read alike, the source gives them in different places. Bridge positions count the residues as written; N and C are the ends. Peptide text beside a SMILES is read from it.

The values that follow come from patent US20250074943A1, “DLL3 BINDING PEPTIDES AND USES THEREOF” (AMGEN INC., priority 2021, published 2025).

The assay concerns the target T1, recombinant DLL3 ectodomain (rhDLL3-Fc) (Homo sapiens, UniProt Q9NYJ7).
T1 construct: The recombinant DLL3 ectodomain (rhDLL3-Fc) was biotinylated; Fc
T1 sequence (Q9NYJ7 27-492 limits assumed): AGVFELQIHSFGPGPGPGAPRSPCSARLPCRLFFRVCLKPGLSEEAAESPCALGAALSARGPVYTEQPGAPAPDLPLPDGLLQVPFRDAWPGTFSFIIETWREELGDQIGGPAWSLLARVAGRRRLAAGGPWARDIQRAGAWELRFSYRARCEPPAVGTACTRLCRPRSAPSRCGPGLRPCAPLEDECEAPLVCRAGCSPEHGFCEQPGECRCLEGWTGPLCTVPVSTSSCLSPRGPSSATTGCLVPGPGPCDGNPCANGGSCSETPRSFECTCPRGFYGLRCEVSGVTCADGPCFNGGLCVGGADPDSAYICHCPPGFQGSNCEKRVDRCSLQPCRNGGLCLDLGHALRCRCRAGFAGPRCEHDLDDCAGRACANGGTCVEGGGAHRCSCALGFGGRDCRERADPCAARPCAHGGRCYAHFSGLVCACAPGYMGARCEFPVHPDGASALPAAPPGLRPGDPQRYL
Briefly: Binding kinetic assay using Bio-layer interferometry (BLI). Particulars: for binding mode to DLL3: peptides at 20, 4 and 0.8 μM, fit to 1:1 Langmuir binding model. The protocol:
Binding kinetic assays were performed using Bio-layer interferometry (BLI) technology. The recombinant DLL3 ectodomain (rhDLL3-Fc) was biotinylated using EZ-Link Sulfo-NHS-LC-LC-Biotin Kit according to the manufacturer's protocol (Pierce by Thermo Fisher Scientific). The recombinant protein was incubated with an excess of NHS-LC-LC Biotin ester, in a molar ratio of 1:3 (protein: biotin), at 25° C. for 90 min. The un-reacted biotin ester was removed by subsequent buffer exchange on 0.5 ml Zeba spin desalting columns 7K MWCO (Pierce by Thermo Fisher Scientific).
For orientation: In BLI a coated tip is dipped into the sample, and binding shifts an interference pattern.

The mark [1] stands for this setting: Table 4, ± values from three independent experiments, read-out: RT (residence time) (converted).

With `CC(C)[C@H](NC(=O)[C@@H](NC(=O)[C@H](CCC(=O)O)NC(=O)[C@H](C)N)[C@@H](C)O)C(=O)N[C@@H](CCC(=O)O)C(=O)N[C@@H](Cc1ccccc1)C(=O)N[C@@H](CC(=O)O)C(=O)NCC(=O)N[C@H]1CSSC[C@@H](C(=O)N[C@@H](Cc2c[nH]c3ccccc23)C(=O)N[C@@H](Cc2c[nH]c3ccccc23)C(N)=O)NC(=O)[C@H]([C@@H](C)O)NC(=O)[C@H](Cc2c[nH]c3ccccc23)NC(=O)[C@H](CCC(=O)O)NC(=O)[C@H](Cc2ccc(O)cc2)NC(=O)[C@H](Cc2c[nH]c3ccccc23)NC(=O)[C@H](CC(=O)O)NC(=O)CNC(=O)[C@H](CCCCN)NC1=O` [PepSP1164] (H-AETVEFDGCKGDWYEWTCWW-NH2; disulfide 9-18), the “binding mode to DLL3” value is on record as “dose-response saturable binding”. Besides, the Kd (commonly the free concentration of one partner at which half of the binding sites on the other are occupied at equilibrium, for simple one-to-one binding) (Table 4, global fitting 1:1 Langmuir, koff vs kon ratio, ± values from three independent experiments) came out at 125 nM. The residence time (as a rule, how long the partners stay bound on average) under setting [1] was 2.08 min.

For `CC(C)[C@H](NC(=O)[C@@H]1CSSC[C@H](NC(=O)CNC(=O)[C@H](Cc2ccc(O)cc2)NC(=O)[C@H](Cc2ccccc2)NC(=O)[C@H](CCC(=O)O)NC(=O)[C@@H](NC(=O)[C@@H](NC(=O)[C@H](CCC(=O)O)NC(=O)[C@H](C)N)[C@@H](C)O)C(C)C)C(=O)N[C@@H](CCCNC(=N)N)C(=O)NCC(=O)NCC(=O)N[C@@H](CC(=O)O)C(=O)NCC(=O)N[C@@H](CCC(=O)O)C(=O)N[C@@H](Cc2c[nH]c3ccccc23)C(=O)N[C@@H]([C@@H](C)O)C(=O)N1)C(=O)N[C@@H](Cc1c[nH]c2ccccc12)C(N)=O` [PepSP1165] (H-AETVEFYGCRGGDGEWTCVW-NH2; disulfide 9-18; N-terminus assumed), the “binding mode to DLL3” value is on record as “dose-response saturable binding”. Moreover, under setting [1], the residence time was 1.1 min.

`CC(C)[C@H](NC(=O)[C@@H]1CSSC[C@H](NC(=O)[C@H](Cc2ccc(O)cc2)NC(=O)[C@H](CC(=O)O)NC(=O)[C@H](Cc2ccccc2)NC(=O)[C@H](CCC(=O)O)NC(=O)[C@@H](NC(=O)[C@@H](NC(=O)[C@H](CCC(=O)O)NC(=O)[C@H](C)N)[C@@H](C)O)C(C)C)C(=O)N[C@@H](Cc2ccc(O)cc2)C(=O)NCC(=O)N[C@@H](CC(=O)O)C(=O)N[C@@H](C(C)C)C(=O)N[C@@H](CCC(=O)O)C(=O)N[C@@H](CCC(=O)O)C(=O)N[C@@H](Cc2c[nH]c3ccccc23)C(=O)N[C@@H]([C@@H](C)O)C(=O)N1)C(=O)N[C@@H](Cc1ccc(O)cc1)C(N)=O` [PepSP1166] (H-AETVEFDYCYGDVEEWTCVY-NH2; disulfide 9-18; N-terminus assumed): the “binding mode to DLL3” value is listed as “dose-response saturable binding”. Also, the residence time under setting [1] was 0.8 min.

Take `CC(C)C[C@H](NC(=O)[C@@H]1CSSC[C@H](NC(=O)CNC(=O)[C@H](Cc2ccc(O)cc2)NC(=O)[C@H](Cc2ccccc2)NC(=O)[C@H](CCC(=O)O)NC(=O)[C@@H](NC(=O)[C@@H](NC(=O)[C@H](CCC(=O)O)NC(=O)[C@H](C)N)[C@@H](C)O)C(C)C)C(=O)N[C@@H](CCC(=O)O)C(=O)N[C@@H]([C@@H](C)O)C(=O)N[C@@H](Cc2ccc(O)cc2)C(=O)N[C@@H](CO)C(=O)NCC(=O)NCC(=O)N[C@@H](Cc2c[nH]c3ccccc23)C(=O)N[C@@H]([C@@H](C)O)C(=O)N1)C(=O)N[C@@H](Cc1c[nH]c2ccccc12)C(N)=O` [PepSP1167] (H-AETVEFYGCETYSGGWTCLW-NH2; disulfide 9-18): the “binding mode to DLL3” value is “dose-response saturable binding”. The residence time under setting [1] is 0.783 min.

As to `CC(C)[C@H](NC(=O)[C@@H](NC(=O)[C@H](CCC(=O)O)NC(=O)[C@H](C)N)[C@@H](C)O)C(=O)N[C@@H](CCC(=O)O)C(=O)N[C@@H](Cc1ccccc1)C(=O)N[C@@H](Cc1ccc(O)cc1)C(=O)NCC(=O)N[C@H]1CSSC[C@@H](C(=O)N[C@@H](C)C(=O)N[C@@H](Cc2c[nH]c3ccccc23)C(N)=O)NC(=O)[C@H]([C@@H](C)O)NC(=O)[C@H](Cc2c[nH]c3ccccc23)NC(=O)CNC(=O)[C@H](CCCCN)NC(=O)[C@H](Cc2c[nH]c3ccccc23)NC(=O)[C@H](CC(=O)O)NC(=O)[C@H](Cc2c[nH]c3ccccc23)NC(=O)[C@H](CCCCN)NC1=O` [PepSP1168] (H-AETVEFYGCKWDWKGWTCAW-NH2; disulfide 9-18; N-terminus assumed), the “binding mode to DLL3” value was “dose-response saturable binding”. For the same molecule, under setting [1], the residence time was 0.733 min.

Regarding `CC(C)[C@@H]1NC(=O)[C@H](CO)NC(=O)[C@@H](NC(=O)CNC(=O)[C@H](Cc2ccc(O)cc2)NC(=O)[C@H](Cc2ccccc2)NC(=O)[C@H](CCC(=O)O)NC(=O)[C@@H](NC(=O)[C@@H](NC(=O)[C@H](CCC(=O)O)NC(=O)[C@H](C)N)[C@@H](C)O)C(C)C)CSSC[C@@H](C(=O)N[C@@H](CO)C(=O)N[C@@H](Cc2c[nH]c3ccccc23)C(N)=O)NC(=O)[C@H]([C@@H](C)O)NC(=O)[C@H](Cc2c[nH]c3ccccc23)NC(=O)CNC(=O)[C@H](CC(=O)O)NC(=O)[C@H](C)NC(=O)[C@H](CC(N)=O)NC1=O` [PepSP1170] (H-AETVEFYGCSVNADGWTCSW-NH2; disulfide 9-18), the “binding mode to DLL3” value is “dose-response saturable binding”. For the same molecule, the residence time under setting [1] is 0.717 min.

Consider `CC(C)C[C@H](NC(=O)[C@@H]1CSSC[C@H](NC(=O)CNC(=O)[C@H](Cc2ccc(O)cc2)NC(=O)[C@H](Cc2ccccc2)NC(=O)[C@H](CCC(=O)O)NC(=O)[C@@H](NC(=O)[C@@H](NC(=O)[C@H](CCC(=O)O)NC(=O)[C@H](C)N)[C@@H](C)O)C(C)C)C(=O)N[C@@H](Cc2ccc(O)cc2)C(=O)NCC(=O)N[C@@H](CCC(=O)O)C(=O)N[C@@H](CCC(N)=O)C(=O)N[C@@H](CCC(=O)O)C(=O)N[C@@H](CCC(N)=O)C(=O)N[C@@H](Cc2c[nH]c3ccccc23)C(=O)N[C@@H]([C@@H](C)O)C(=O)N1)C(=O)N[C@@H](Cc1c[nH]c2ccccc12)C(N)=O` [PepSP1173] (H-AETVEFYGCYGEQEQWTCLW-NH2; disulfide 9-18), for which the “binding mode to DLL3” value is recorded as “dose-response saturable binding”. Also, the residence time under setting [1] is 1.68 min.

Consider `CC(C)[C@H](NC(=O)[C@@H](NC(=O)[C@H](CCC(=O)O)NC(=O)[C@H](C)N)[C@@H](C)O)C(=O)N[C@@H](CCC(=O)O)C(=O)N[C@@H](Cc1ccccc1)C(=O)N[C@@H](Cc1ccc(O)cc1)C(=O)NCC(=O)N[C@H]1CSSC[C@@H](C(=O)N[C@@H](C)C(=O)N[C@@H](Cc2c[nH]c3ccccc23)C(N)=O)NC(=O)[C@H]([C@@H](C)O)NC(=O)[C@H](Cc2ccc(O)cc2)NC(=O)[C@H](CC(=O)O)NC(=O)[C@H](Cc2c[nH]c3ccccc23)NC(=O)CNC(=O)[C@H](Cc2ccc(O)cc2)NC(=O)[C@H](Cc2ccc(O)cc2)NC(=O)[C@H](CCC(N)=O)NC1=O` [PepSP1176] (H-AETVEFYGCQYYGWDYTCAW-NH2; disulfide 9-18), for which the “binding mode to DLL3” value was “dose-response saturable binding”. Moreover, the residence time under setting [1] was 1.12 min.

With `CC(C)[C@H](NC(=O)[C@@H](NC(=O)[C@H](CCC(=O)O)NC(=O)[C@H](C)N)[C@@H](C)O)C(=O)N[C@@H](CCC(=O)O)C(=O)N[C@@H](Cc1ccccc1)C(=O)N[C@@H](Cc1ccc(O)cc1)C(=O)NCC(=O)N[C@H]1CSSC[C@@H](C(=O)N[C@@H](CO)C(=O)N[C@@H](Cc2c[nH]c3ccccc23)C(N)=O)NC(=O)[C@H]([C@@H](C)O)NC(=O)[C@H](Cc2ccc(O)cc2)NC(=O)[C@H](CC(=O)O)NC(=O)[C@H](CC(N)=O)NC(=O)[C@H](Cc2ccc(O)cc2)NC(=O)[C@H](CC(N)=O)NC(=O)CNC(=O)[C@H](Cc2c[nH]c3ccccc23)NC1=O` [PepSP1177] (H-AETVEFYGCWGNYNDYTCSW-NH2; disulfide 9-18; N-terminus assumed), the “binding mode to DLL3” value is “dose-response saturable binding”. For the same molecule, under setting [1], the residence time was 0.867 min.

With `CC(C)[C@H](NC(=O)[C@@H](NC(=O)[C@H](CCC(=O)O)NC(=O)[C@H](C)N)[C@@H](C)O)C(=O)N[C@@H](CCC(=O)O)C(=O)N[C@@H](Cc1ccccc1)C(=O)N[C@@H](Cc1ccc(O)cc1)C(=O)NCC(=O)N[C@H]1CSSC[C@@H](C(=O)N[C@H](C(=O)N[C@@H](Cc2c[nH]c3ccccc23)C(N)=O)[C@@H](C)O)NC(=O)[C@H]([C@@H](C)O)NC(=O)[C@H](Cc2ccc(O)cc2)NC(=O)[C@H](CC(=O)O)NC(=O)[C@H](CC(N)=O)NC(=O)[C@H](CCCNC(=N)N)NC(=O)[C@H](CC(=O)O)NC(=O)CNC(=O)[C@H](Cc2ccc(O)cc2)NC1=O` [PepSP1178] (H-AETVEFYGCYGDRNDYTCTW-NH2; disulfide 9-18; N-terminus assumed), the “binding mode to DLL3” value is “dose-response saturable binding”. Under setting [1], the residence time was 1.27 min. In addition, the residence time (range over the seven peptides, read-out: residence time) lay in the range of 1 to 3 min. Moreover, the affinity result (wider dose-response 10×KD to 0.1×KD) is recorded as “double-digit nM range”.
